Reference: patent US8513233B2, “Pyrimidinyl-propionic acid derivatives and their use as PPAR agonists” (Shanghai Institute of Materia Medica, CAS, priority 2007, dated 2013)
pEC50, pIC50: −log10 of the molar value.

Experiments:
[1] = test system: human renal epithelial cells (HKC); conditions: cited from earlier work
[2] = test system: ADPKD cyst-lining epithelia; conditions: dose-dependent and time-dependent; cited from earlier work
T24 = assay: Growth inhibition, modified MTT assay, T24; type: cell-based; conditions: Homo sapiens, T-24, mean of 3 independent tests
How it was run: (§1)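 Cells seeded 24 h in 10% FCS medium, switched to serum-free medium for 24 h, then exposed to graded compound concentrations in triplicate. Viability read by MTT (4 h), formazan dissolved in DMSO, OD at 492 nm; IC50 from sigmoidal fit, mean of 3 independent tests.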

MCF-7 = assay: Growth inhibition, modified MTT assay, MCF-7; type: cell-based; conditions: Homo sapiens, MCF7; MCF-7, MTT, mean of 3 independent tests
How it was run: as §1

PPAR-γ = molecular target: T1, PPAR-γ (Homo sapiens, UniProt P37231); assay: Transient transfection and transcription assay (luciferase reporter, U2OS cells); type: cell-based; conditions: 24 h treatment
T1 construct: expressed in transfected cells; host or cells: U2OS cells, transiently transfected with pcDNA3.1 expression vectors (FuGene6)
T1 sequence (P37231 1-505): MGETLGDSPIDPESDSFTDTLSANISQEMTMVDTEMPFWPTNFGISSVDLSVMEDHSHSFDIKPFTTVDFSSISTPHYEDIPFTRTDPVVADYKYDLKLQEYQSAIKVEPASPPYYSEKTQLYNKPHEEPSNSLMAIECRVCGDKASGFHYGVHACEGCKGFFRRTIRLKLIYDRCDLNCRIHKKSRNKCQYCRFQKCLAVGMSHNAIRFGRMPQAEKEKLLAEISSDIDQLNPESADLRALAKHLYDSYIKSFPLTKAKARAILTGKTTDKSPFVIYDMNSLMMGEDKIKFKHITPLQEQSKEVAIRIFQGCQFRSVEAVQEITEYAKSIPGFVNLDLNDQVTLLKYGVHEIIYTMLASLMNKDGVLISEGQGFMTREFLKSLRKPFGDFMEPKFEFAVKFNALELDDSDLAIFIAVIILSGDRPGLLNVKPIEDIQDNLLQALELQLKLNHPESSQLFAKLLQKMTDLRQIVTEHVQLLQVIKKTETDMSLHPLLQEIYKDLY
T1 sequence (P19793 1-462 partner): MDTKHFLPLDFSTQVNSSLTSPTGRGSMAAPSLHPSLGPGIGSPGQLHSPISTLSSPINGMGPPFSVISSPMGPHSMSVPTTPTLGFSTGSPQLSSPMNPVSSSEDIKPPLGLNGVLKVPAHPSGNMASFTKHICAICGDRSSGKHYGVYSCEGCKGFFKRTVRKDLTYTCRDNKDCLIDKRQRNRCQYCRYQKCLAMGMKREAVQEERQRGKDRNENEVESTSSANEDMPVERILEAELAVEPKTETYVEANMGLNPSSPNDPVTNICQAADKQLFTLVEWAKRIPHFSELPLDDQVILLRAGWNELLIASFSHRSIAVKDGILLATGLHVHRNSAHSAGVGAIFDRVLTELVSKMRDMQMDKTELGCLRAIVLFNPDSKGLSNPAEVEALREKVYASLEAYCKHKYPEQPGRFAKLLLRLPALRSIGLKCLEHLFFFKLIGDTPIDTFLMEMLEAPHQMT

HepG2 = assay: Growth inhibition, modified MTT assay, HepG2; type: cell-based; conditions: Homo sapiens, mean of 3 independent tests
How it was run: as §1

SPC-A1 = assay: Growth inhibition, modified MTT assay, SPC-A1; type: cell-based; conditions: SPCA1, mean of 3 independent tests
How it was run: as §1

[3] = test system: Han:SPRD rats, animal model of ADPKD; assay: Administration of rosiglitazone on the Han:SPRD rats (earlier study); type: in vivo, rat; conditions: when they died, chronic high dose

Compound | effect on human renal epithelial cells (HKC) [1] | apoptosis of ADPKD cyst-lining epithelia [2] | proliferation of ADPKD cyst-lining epithelia [2] | melting point [°C] | pIC50 (T24) | pIC50 (MCF-7) | pEC50 (PPAR-γ) | pIC50 (HepG2) | pIC50 (SPC-A1) | heart and liver weight [3]
CCCCC/C=C/C=C1/C(=O)C=C[C@@H]1C/C=C\CCCC(=O)O [Compound 15d-PGJ2, 15d-PGJ2] | relatively weak | induce apoptosis | inhibit the proliferation |  |  |  |  |  |  | 
CCNc1nc(Oc2ccc(CC(C)(Oc3ccccc3)C(=O)O)cc2)cc(N2CCN(Cc3ccccc3)CC2)n1 (centres unmarked) [Compound 50, 3-{4-[6-(4-Benzyl-piperazin-1-yl)-2-ethylamino-pyrimidin-4-yloxy]-phenyl}-2-methyl-2-phenoxy-propionic acid] |  |  |  | 106 to 107 | < 4.30 | 4.47 | 5.22 | < 4.30 | 4.33 | 
CCN(CC)c1nc(Oc2ccc(CC(C)(Oc3ccccc3)C(=O)O)cc2)cc(N2CCN(Cc3ccccc3)CC2)n1 (centres unmarked) [Compound 51, 3-{4-[6-(4-Benzyl-piperazin-1-yl)-2-diethylamino-pyrimidin-4-yloxy]-phenyl}-2-methyl-2-phenoxy-propionic acid] |  |  |  | 120 to 121 | 4.66 | 4.56 | 5.15 | 4.43 | 4.44 | 
CC(Cc1ccc(Oc2cc(N3CCN(Cc4ccccc4)CC3)nc(N3CCCCC3)n2)cc1)(Oc1ccccc1)C(=O)O (centres unmarked) [Compound 52, 3-{4-[6-(4-Benzyl-piperazin-1-yl)-2-piperidin-1-yl-pyrimidin-4-yloxy]-phenyl}-2-methyl-2-phenoxy-propionic acid] |  |  |  | 125 to 126 | 4.91 | 4.75 | 5.33 | 4.75 | 5.11 | 
CC(Cc1ccc(Oc2cc(N3CCN(Cc4ccccc4)CC3)nc(N3CCOCC3)n2)cc1)(Oc1ccccc1)C(=O)O (centres unmarked) [Compound 53, 3-{4-[6-(4-Benzyl-piperazin-1-yl)-2-morpholin-4-yl-pyrimidin-4-yloxy]-phenyl}-2-methyl-2-phenoxy-propionic acid] |  |  |  | 127 to 129 | 4.80 | 4.90 | 5.40 | 4.65 | 4.65 | 
CC(Cc1ccc(Oc2cc(N3CCN(Cc4ccccc4)CC3)nc(N3CCCC3)n2)cc1)(Oc1ccccc1)C(=O)O (centres unmarked) [Compound 54, 3-{4-[6-(4-Benzyl-piperazin-1-yl)-2-pyrrolidin-1-yl-pyrimidin-4-yloxy]-phenyl}-2-methyl-2-phenoxy-propionic acid] |  |  |  | 126 to 127 | < 4.30 | < 4.30 | 5.42 | < 4.30 | < 4.30 | 
CN(CCOc1ccc(CC2SC(=O)NC2=O)cc1)c1ccccn1 (centres unmarked) [Rosiglitazone, reference compound] |  |  |  |  | 4.16 | 4.34 |  | 4.10 | 4.22 | heart and liver weight gain
